Results reported in paper PMC12032302, “A20 attenuates oxidized self-DNA-mediated inflammation in acute kidney injury” (Signal Transduction and Targeted Therapy, 2025).
Residues, ends and D or L forms follow the SMILES beside them.

Columns and labels:
[1] = target: T1, HA-Tri-MUT-NEK7 (Mus musculus, UniProt Q9ES74, K130A/K140A/L132R); experiment: BLI analysis of NEK7 and P-II, HA-Tri-MUT-NEK7; assay type: binding; details: K130, L132 and K140 mutated, Fig. 7d
T1 construct: 3×HA; made in house; host or cells: HEK293T
T1 sequence (Q9ES74 whole entry K130A/L132R/K140A): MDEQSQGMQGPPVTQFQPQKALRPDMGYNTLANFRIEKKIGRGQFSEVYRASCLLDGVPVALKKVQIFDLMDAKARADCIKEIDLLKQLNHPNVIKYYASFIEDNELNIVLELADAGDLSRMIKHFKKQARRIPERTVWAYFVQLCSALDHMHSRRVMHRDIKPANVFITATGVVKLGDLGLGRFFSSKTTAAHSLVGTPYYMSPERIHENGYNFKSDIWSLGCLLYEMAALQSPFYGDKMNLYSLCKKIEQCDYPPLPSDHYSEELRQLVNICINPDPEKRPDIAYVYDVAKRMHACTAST
Source text: For BLI analysis, 3×HA-WT-NEK7 or 3×HA-Tri-MUT-NEK7 plasmids were transfected into HEK293T cells. Post-transfection, proteins were purified with HA antibody via coimmunoprecipitation and then eluted with 0.1 M glycine, Ph2.0. Then, samples were neutralized with 3 M NaOH and subjected to BLI analysis.
Mouse HA-NEK7, FlAG-A20, and NLRP3 cDNA were amplified by employing standard PCR techniques from a mouse cDNA library. Subsequently, diverse cDNAs were inserted into mammalian expression vectors pcDNA3.1(+), pRK5, or pCMV6 with 3×Flag or 3×HA tags. For transient transfections, Lipofectamine 3000 was utilized according to the manufacturer’s instructions.
Bio-Layer Interferometry (BLI) analysis
The peptide (Bootech BioScience &Technology) was immobilized separately on Octet® AR2G Biosensors (Sartorius, Lot#2308017311) at a concentration of 400 μg/ml for 500 s. Association and dissociation curves were obtained through the addition of a dilution series of recombinant human NEK7 protein (SinoBiological, CAT#11534-H20B) (39.0625 to 1250 nM) for 120 s followed by dissociation for 120 s. Interference patterns for association or dissociation were measured in real-time to generate a response profile on the Octet® System Octet 96 Red instrument (Sartorius). A 1:1 binding model was used to evaluate the Kinetic parameter.

[2] = test system: AKI mice; experiment: serum creatinine of AKI mice; assay type: in vivo, mouse; details: Cis-treated mice; A20-derived peptide 15 mg/kg i.p., pretreated; n = 5
Protocol: LPS (Sigma, Cat#L2630) was dissolved in PBS to 2.5 mg/mL for one-time intraperitoneal 25 mg/kg injection; deoxyribonuclease I (DNase I, Sigma, Cat#SLBV1446) was dissolved in PBS to 1 mg/mL and injected intraperitoneally at a dose of 10 mg/kg at 4 h before cisplatin or AA I injection and every 24 h after injection. Disulfiram (MedChemExpress, CAS:97-77-8) was diluted in corn oil to 12.5 mg/mL and injected 50 mg/kg intraperitoneally every 24 h after cisplatin or AA I administration. Cu(II) (Sigma, Cat#344419) was dissolved in PBS to 30 µg/mL and administered intraperitoneally 6 h before disulfiram at a dose of 0.15 mg/kg; TNF-α (Peprotech, Cat#315-01 A) was dissolved in PBS to 10 µg/mL and injected at 100 µg/kg once through the caudal vein 24 h before cisplatin injection. […] MCC950 (MedChem Express, CAS:256373-96-3) was dissolved in PBS to 5 mg/mL and injected intraperitoneally at a dose of 50 mg/kg 12 h before cisplatin or AA I injection and every 12 h after injection; berberine (APExBIO, Cat#N1368) was dissolved in PBS to 5 mg/mL and 5 mg/kg injected intraperitoneally at 36, 24 and 12 h before cisplatin; […] To supervise the effects of various treatments on survival time and rate, the mice were observed, and survival curves were generated. To investigate the specific mechanisms, whole blood was retrieved from the orbit, serum was separated through centrifugation on the 4th day, and the mice were then sacrificed by cervical dislocation. Mice were randomly assigned in experiments, while there was no blinding during the animal experiments. Renal function was evaluated based on serum creatinine level and histological features. Serum creatinine was determined in the Clinical Pharmacology Lab, Clinical Trial Center, WCH, SCU. The kidneys were extracted from euthanized mice, immediately fixed with 4% paraformaldehyde, and embedded in paraffin. Furthermore, the samples were cut into 5 µm thick sections. These tissue samples were subjected to hematoxylin-eosin (HE) and […] according to standard protocols with HE reagent (Biosharp, Cat#BL702B, BL703B) and Masson reagent (Servicebio, Cat#G1006-100ML). The pathological changes were detected through optical microscopy, and the tubulointerstitial injury score was determined as previously reported.

[3] = test system: AKI mice; experiment: overall therapeutic effect in AKI mice; assay type: in vivo, mouse; details: A20-derived peptide (P-II), abstract
Protocol: Aristolochic acid I sodium salt was dissolved in PBS to 1 mg/mL and injected intraperitoneally at a dose of 10 mg/kg (body weight) every 24 h for 3 days; cisplatin was dissolved in PBS to 1.5 mg/mL for one-time intraperitoneal 25 mg/kg injection; LPS (Sigma, Cat#L2630) was dissolved in PBS to 2.5 mg/mL for one-time intraperitoneal 25 mg/kg injection; deoxyribonuclease I (DNase I, Sigma, Cat#SLBV1446) was dissolved in PBS to 1 mg/mL and injected intraperitoneally at a dose of 10 mg/kg at 4 h before cisplatin or AA I injection and every 24 h after injection. Disulfiram (MedChemExpress, CAS:97-77-8) was diluted in corn oil to 12.5 mg/mL and injected 50 mg/kg intraperitoneally every 24 h after cisplatin or AA I administration. Cu(II) (Sigma, Cat#344419) was dissolved in PBS to 30 µg/mL and administered intraperitoneally 6 h before disulfiram at a dose of 0.15 mg/kg; TNF-α (Peprotech, Cat#315-01 A) was dissolved in PBS to 10 µg/mL and injected at 100 µg/kg once through the caudal vein 24 h before cisplatin injection. Metformin (Sigma, Cat#D150959) was dissolved in PBS to 5 mg/mL and injected intraperitoneally at a dose of 50 mg/kg 24 h before cisplatin or AA I injection and every 24 h after injection. MCC950 (MedChem Express, CAS:256373-96-3) was dissolved in PBS to 5 mg/mL and injected intraperitoneally at a dose of 50 mg/kg 12 h before cisplatin or AA I injection and every 12 h after injection; berberine (APExBIO, Cat#N1368) was dissolved in PBS to 5 mg/mL and 5 mg/kg injected intraperitoneally at 36, 24 and 12 h before cisplatin; A20-derived-peptide was dissolved in ddH2O to 3 mg/mL and injected intraperitoneally at a dose of 15 mg/kg 1 h before cisplatin. To supervise the effects of various treatments on survival time and rate, the mice were observed, and survival curves were generated. To investigate the specific mechanisms, whole blood was retrieved from the orbit, serum was separated through centrifugation on the 4th day, and the mice were then sacrificed by cervical dislocation. Mice were randomly assigned in experiments, while there was no blinding during the animal experiments.

CSCC[C@H](NC(=O)[C@H](Cc1ccc(O)cc1)NC(=O)[C@H](CCC(N)=O)NC(=O)[C@H](CS)NC(=O)[C@H](C)NC(=O)[C@H](C)NC(=O)[C@H](Cc1c[nH]cn1)NC(=O)[C@H](CCSC)NC(=O)[C@H](CC(C)C)NC(=O)[C@H](CS)NC(=O)[C@H](CC(N)=O)NC(=O)CNC(=O)[C@H](CC(=O)O)NC(=O)CNC(=O)[C@H](CC(N)=O)NC(=O)[C@@H](NC(=O)[C@H](CCCCN)NC(=O)[C@H](CC(C)C)NC(=O)[C@H](C)NC(=O)[C@@H](NC(=O)[C@H](CC(C)C)NC(=O)[C@@H](N)CCCCN)C(C)C)[C@@H](C)O)C(=O)N[C@@H](Cc1c[nH]c2ccccc12)C(=O)NCC(=O)N[C@H](C(=O)N[C@@H](CCC(N)=O)C(=O)N[C@@H](CC(=O)O)C(=O)N[C@H](C(=O)N[C@@H](CC(=O)O)C(=O)O)[C@@H](C)O)C(C)C [P-II] (H-KLVALKTNGDGNCLMHAACQYMWGVQDTD-OH; N-terminus and C-terminus assumed)
affinity of NEK7 for P-II, effect of simultaneous mutation of three residues [1]: abrogated the affinity of NEK7 for P-II
serum creatinine (in words) [2]: alleviated the serum creatinine
survival and renal injury of AKI mice [3]: improves the survival and renal injury of AKI mice
